Results as given in ChEMBL document CHEMBL5120922, “Discovery, Optimization, and Evaluation of Potent and Selective PI3Kδ-γ Dual Inhibitors for the Treatment of B-cell Malignancies” (J Med Chem, 2022).
pIC50: −log10 of the molar value.

Legend:
[1] = target: T1, Phosphatidylinositol 4,5-bisphosphate 3-kinase catalytic subunit gamma isoform (Homo sapiens, UniProt P48736); experiment: Inhibition of N-terminal His6-tagged recombinant full length human PI3Kgamma expressed in baculovirus infected Sf21 insect cells at 0.1 uM by HTRF assay relative to control
[2] = tested on: DOHH-2; experiment: Antiproliferative activity against human DOHH-2 cells assessed as cell growth inhibition measured after 72 hrs by MTT assay; assay type: functional, cell-based; conditions: DOHH-2, 72 h
[3] = target: T2, Phosphatidylinositol 4,5-bisphosphate 3-kinase catalytic subunit delta isoform (Homo sapiens) (UniProt O00329); experiment: Inhibition of N-terminal His6-tagged recombinant full length human PI3Kdelta expressed in baculovirus infected Sf21 insect cells at 0.1 uM by HTRF assay relative to control
T2 sequence (whole entry): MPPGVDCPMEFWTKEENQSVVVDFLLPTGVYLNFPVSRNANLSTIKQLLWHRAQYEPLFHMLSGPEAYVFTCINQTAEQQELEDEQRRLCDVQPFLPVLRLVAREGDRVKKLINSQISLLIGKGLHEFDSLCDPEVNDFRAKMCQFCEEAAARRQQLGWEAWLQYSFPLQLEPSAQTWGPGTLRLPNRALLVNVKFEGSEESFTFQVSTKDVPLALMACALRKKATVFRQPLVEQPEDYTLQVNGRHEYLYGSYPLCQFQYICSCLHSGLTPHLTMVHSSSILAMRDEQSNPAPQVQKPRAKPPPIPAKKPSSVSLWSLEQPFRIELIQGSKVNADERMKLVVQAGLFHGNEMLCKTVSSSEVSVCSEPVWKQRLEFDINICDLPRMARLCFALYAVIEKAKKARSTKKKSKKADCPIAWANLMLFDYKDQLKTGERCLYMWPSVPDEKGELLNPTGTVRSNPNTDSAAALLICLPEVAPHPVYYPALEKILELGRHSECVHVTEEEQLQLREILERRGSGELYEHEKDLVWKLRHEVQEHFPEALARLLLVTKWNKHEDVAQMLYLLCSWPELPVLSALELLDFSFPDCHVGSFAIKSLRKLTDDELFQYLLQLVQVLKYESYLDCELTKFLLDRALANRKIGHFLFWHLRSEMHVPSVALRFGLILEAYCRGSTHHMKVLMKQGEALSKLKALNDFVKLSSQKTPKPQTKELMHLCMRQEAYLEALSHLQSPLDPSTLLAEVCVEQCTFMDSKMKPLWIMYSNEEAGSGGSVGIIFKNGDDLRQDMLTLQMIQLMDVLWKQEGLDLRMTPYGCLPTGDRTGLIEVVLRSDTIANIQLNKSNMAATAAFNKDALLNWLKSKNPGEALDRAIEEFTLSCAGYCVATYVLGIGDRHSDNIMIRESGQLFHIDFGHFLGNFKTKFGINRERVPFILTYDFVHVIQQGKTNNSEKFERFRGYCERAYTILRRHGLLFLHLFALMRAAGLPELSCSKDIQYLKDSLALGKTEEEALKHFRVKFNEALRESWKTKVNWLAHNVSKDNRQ

[4] = tested on: SUD4; experiment: Antiproliferative activity against human SU-DHL-4 cells assessed as cell growth inhibition measured after 72 hrs by MTT assay; assay type: functional, cell-based; conditions: SU-DHL-4, 72 h
[5] = target: Phosphatidylinositol 4,5-bisphosphate 3-kinase catalytic subunit alpha isoform (Homo sapiens, UniProt P42336); experiment: Inhibition of N-terminal His6-tagged recombinant full length human PI3Kalpha expressed in baculovirus infected Sf21 insect cells at 1 uM by HTRF assay relative to control
[6] = target: Phosphatidylinositol 4,5-bisphosphate 3-kinase catalytic subunit beta isoform (Homo sapiens, UniProt P42338); experiment: Inhibition of N-terminal His6-tagged recombinant full length human PI3Kbeta expressed in baculovirus infected Sf21 insect cells at 1 uM by HTRF assay relative to control
[7] = Metabolic stability in human liver microsomes assessed as clearance at 1 uM measured upto 60 mins in presence of NADPH by measuring protein; assay type: ADME, Microsome; conditions: 1 h
[8] = tested on: SU-DHL-6; experiment: Antiproliferative activity against human SU-DHL-6 cells assessed as cell growth inhibition measured after 72 hrs by MTT assay; assay type: functional, cell-based; conditions: SU-DHL-6, 72 h
[9] = Metabolic stability in human liver microsomes assessed as compound remaining at 1 uM measured upto 60 mins in presence of NADPH; assay type: ADME, Microsome; conditions: read-out: Stability
[10] = Metabolic stability in human liver microsomes assessed as half life at 1 uM measured upto 60 mins in presence of NADPH; assay type: ADME, Microsome
[11] = target: T2, Phosphatidylinositol 4,5-bisphosphate 3-kinase catalytic subunit delta isoform (Homo sapiens); experiment: Inhibition of N-terminal His6-tagged recombinant full length human PI3Kdelta expressed in baculovirus infected Sf21 insect cells at 1 uM by HTRF assay relative to control
[12] = target: T1, Phosphatidylinositol 4,5-bisphosphate 3-kinase catalytic subunit gamma isoform; experiment: Inhibition of N-terminal His6-tagged recombinant full length human PI3Kgamma expressed in baculovirus infected Sf21 insect cells at 1 uM by HTRF assay relative to control

T1 sequence (P48736 whole entry, looked up, canonical isoform): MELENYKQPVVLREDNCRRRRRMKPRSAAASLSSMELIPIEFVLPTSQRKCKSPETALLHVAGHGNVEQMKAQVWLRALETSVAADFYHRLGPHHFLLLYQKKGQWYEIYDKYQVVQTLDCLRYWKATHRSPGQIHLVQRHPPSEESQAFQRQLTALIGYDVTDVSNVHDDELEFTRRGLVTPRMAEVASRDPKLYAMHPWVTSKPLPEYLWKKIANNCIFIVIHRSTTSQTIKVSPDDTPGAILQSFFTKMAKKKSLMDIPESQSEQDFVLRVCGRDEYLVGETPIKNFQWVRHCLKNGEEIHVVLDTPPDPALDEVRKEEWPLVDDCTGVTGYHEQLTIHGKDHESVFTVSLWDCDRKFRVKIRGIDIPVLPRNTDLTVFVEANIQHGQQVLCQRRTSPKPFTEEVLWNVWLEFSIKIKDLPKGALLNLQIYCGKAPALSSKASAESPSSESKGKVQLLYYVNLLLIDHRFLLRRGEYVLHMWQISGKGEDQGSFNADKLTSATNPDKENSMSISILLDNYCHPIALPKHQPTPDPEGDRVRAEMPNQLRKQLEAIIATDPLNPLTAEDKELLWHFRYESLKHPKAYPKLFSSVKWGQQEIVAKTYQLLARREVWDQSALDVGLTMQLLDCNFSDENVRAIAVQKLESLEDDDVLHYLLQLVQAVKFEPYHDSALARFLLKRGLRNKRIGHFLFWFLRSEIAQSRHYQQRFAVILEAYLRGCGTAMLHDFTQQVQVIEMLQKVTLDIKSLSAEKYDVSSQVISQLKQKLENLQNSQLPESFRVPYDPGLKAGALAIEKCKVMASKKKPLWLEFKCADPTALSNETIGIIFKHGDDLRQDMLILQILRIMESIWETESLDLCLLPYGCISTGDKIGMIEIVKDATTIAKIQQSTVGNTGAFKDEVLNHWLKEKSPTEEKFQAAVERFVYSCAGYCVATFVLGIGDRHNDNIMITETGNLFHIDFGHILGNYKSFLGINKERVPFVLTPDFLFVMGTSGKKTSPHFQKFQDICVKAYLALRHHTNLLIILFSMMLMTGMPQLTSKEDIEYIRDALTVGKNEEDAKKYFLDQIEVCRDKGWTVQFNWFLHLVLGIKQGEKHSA
Phosphatidylinositol 4,5-bisphosphate 3-kinase catalytic subunit alpha isoform, sequence (P42336 whole entry, canonical isoform): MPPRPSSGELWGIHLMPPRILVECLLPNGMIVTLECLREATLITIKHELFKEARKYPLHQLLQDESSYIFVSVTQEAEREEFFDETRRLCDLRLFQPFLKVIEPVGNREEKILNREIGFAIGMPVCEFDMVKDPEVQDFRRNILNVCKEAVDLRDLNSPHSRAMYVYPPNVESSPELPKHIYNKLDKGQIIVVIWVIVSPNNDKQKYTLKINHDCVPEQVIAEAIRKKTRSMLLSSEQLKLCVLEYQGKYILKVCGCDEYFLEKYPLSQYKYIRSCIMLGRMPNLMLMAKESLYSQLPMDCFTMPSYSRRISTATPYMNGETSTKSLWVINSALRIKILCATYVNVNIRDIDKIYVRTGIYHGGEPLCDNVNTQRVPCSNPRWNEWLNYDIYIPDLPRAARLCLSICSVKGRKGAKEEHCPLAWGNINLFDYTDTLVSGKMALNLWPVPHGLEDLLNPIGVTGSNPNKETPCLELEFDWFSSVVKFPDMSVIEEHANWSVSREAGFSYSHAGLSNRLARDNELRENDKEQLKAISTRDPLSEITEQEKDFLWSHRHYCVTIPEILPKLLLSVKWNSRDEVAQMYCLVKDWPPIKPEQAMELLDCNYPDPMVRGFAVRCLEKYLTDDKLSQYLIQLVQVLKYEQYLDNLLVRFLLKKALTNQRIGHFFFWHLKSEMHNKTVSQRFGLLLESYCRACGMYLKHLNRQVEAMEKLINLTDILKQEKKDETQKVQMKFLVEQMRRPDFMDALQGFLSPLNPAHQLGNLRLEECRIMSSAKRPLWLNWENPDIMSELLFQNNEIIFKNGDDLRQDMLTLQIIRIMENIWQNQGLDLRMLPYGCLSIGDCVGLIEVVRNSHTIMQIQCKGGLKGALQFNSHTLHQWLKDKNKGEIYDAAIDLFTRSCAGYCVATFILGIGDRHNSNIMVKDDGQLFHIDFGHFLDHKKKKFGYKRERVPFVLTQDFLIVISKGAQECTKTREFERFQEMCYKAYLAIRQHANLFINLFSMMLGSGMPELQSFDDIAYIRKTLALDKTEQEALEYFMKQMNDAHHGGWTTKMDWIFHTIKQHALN
Phosphatidylinositol 4,5-bisphosphate 3-kinase catalytic subunit beta isoform, sequence (P42338 whole entry, looked up, canonical isoform): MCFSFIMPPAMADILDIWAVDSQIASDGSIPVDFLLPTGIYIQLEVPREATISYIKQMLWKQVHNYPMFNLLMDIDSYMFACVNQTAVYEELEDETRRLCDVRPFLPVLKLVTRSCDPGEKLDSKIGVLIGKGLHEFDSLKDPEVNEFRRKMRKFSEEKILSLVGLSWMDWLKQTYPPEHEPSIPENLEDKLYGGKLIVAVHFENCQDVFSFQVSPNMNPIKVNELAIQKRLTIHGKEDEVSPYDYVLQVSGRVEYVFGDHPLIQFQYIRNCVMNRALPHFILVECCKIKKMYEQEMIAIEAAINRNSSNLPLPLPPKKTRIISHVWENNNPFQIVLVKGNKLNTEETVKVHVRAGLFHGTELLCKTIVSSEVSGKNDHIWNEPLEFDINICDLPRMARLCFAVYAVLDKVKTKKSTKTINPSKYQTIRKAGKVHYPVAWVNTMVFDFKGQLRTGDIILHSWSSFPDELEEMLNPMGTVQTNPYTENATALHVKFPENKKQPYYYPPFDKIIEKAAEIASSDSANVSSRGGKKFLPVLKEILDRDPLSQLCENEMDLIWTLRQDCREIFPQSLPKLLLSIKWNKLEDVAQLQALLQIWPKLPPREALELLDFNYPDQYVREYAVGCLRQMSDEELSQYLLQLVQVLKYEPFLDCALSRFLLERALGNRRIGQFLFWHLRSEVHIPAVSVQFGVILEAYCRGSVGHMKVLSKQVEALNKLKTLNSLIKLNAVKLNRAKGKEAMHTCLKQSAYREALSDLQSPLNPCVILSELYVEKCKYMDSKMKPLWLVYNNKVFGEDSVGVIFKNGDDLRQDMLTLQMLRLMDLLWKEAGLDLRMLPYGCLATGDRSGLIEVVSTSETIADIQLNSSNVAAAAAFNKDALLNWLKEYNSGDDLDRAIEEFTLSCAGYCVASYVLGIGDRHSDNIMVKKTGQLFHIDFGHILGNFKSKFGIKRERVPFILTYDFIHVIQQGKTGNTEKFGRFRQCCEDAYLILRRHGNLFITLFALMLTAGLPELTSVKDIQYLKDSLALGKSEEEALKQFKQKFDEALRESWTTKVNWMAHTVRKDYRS

Row | SMILES | inhibition [1] [%] | inhibition [3] [%] | inhibition [5] [%] | inhibition [6] [%] | CLH [7] [mL/min/g] | pIC50 [8] | remaining at 1 h, 1 µM [9] [%] | half-life at 1 µM [10] [h] | inhibition [11] [%] | inhibition [12] [%] | pIC50 [2] | pIC50 [4]
1 | C[C@H]1CC[C@@H](c2nc3cccc(-c4cnn(C)c4)c3c(=O)n2-c2ccccc2)N1c1nc(N)nc(N)c1C#N | 12 | -8 | -1 | 20 | 13.8 | 6.38 | 64.7 | 1.67 |  |  | 6.17 | 6.52
2 | Cc1cc(N2[C@@H](C)CC[C@H]2c2nc3cccc(Cl)c3c(=O)n2-c2ccccc2)nc(N)n1 | 99 | 93 | 96 | 105 |  | 5.82 |  |  | 75 | 96 | 5.71 | 5.95
3 | C[C@H]1CC[C@@H](c2nc3cccc(Cl)c3c(=O)n2N2CCOCC2)N1c1nc(N)nc2[nH]cnc12 | 45 | 81 | 91 | 53 |  | 6.38 |  |  | 5 | -2 | 5.84 | 6.22
4 | C[C@H]1CC[C@@H](c2nc3cccc(Cl)c3c(=O)n2-c2ccccc2)N1c1cc(Cl)nc(N)n1 | 97 | 76 | 88 | 92 |  | 5.50 |  |  | 23 | 96 | 5.53 | 5.54
5 | C[C@H]1CC[C@@H](c2nc3cccc(Cl)c3c(=O)n2-c2cc(F)cc(F)c2)N1c1nc(N)nc2[nH]cnc12 | 51 | 12 | 90 | 68 |  | 6.08 |  |  | 7 | 2 | 5.66 | 6.11
6 | N#Cc1c(N)nc(N)nc1N1[C@H](c2nc3cccc(F)c3c(=O)n2-c2cc(F)cc(F)c2)C[C@@H]2CCCC[C@@H]21 | 93 | 82 | 84 | 98 |  | 5.83 |  |  | 23 | 75 | 5.61 | 5.84
7 | CCn1cc(-c2cccc3nc([C@@H]4CC[C@H](C)N4c4nc(N)nc(N)c4C#N)n(-c4ccccc4)c(=O)c23)cn1 | -10 | -4 | 1 | 6 | 17.4 | 6.28 | 60 | 1.33 |  |  | 6.13 | 6.54
8 | CCOc1cncc(-c2cccc3nc([C@@H]4CC[C@H](C)N4c4nc(N)nc(N)c4C#N)n(-c4ccccc4)c(=O)c23)c1 | -8 | -6 |  | -3 | 28.4 | 6.37 | 46.1 | 0.813 |  |  | 6.68 | 6.96
9 | C[C@H]1CC[C@@H](c2nc3cccc(Cl)c3c(=O)n2-c2cccnc2)N1c1nc(N)nc2[nH]cnc12 | 39 | 15 | 89 | 54 |  | 6.39 |  |  | 7 | 0 | 6.19 | 6.29
10 | C[C@H]1CC[C@@H](c2nc3cccc(Cl)c3c(=O)n2-c2ccccc2)N1c1nc(F)nc2[nH]cnc12 | 76 | 27 | 49 | -1 |  | 6.31 |  |  | 13 | 34 | 6.04 | 6.14

Stronger by pIC50 [8], values ahead:

Row | inhibition [1] [%] | inhibition [3] [%] | inhibition [5] [%] | inhibition [6] [%] | CLH [7] [mL/min/g] | pIC50 [8] | remaining at 1 h, 1 µM [9] [%] | half-life at 1 µM [10] [h] | inhibition [11] [%] | inhibition [12] [%] | SMILES | pIC50 [2] | pIC50 [4]
11 | 2 | -2 | 5 | 13 | 16.8 | 6.41 | 51.2 | 1.38 |  |  | CCCn1cc(-c2cccc3nc([C@@H]4CC[C@H](C)N4c4nc(N)nc(N)c4C#N)n(-c4ccccc4)c(=O)c23)cn1 | 6.16 | 6.48
12 | 31 | 4 | 8 | 13 | 8 | 6.49 | 78.1 | 2.89 |  |  | C[C@H]1CC[C@@H](c2nc3cccc(C#Cc4cccnc4)c3c(=O)n2-c2ccccc2)N1c1nc(N)nc(N)c1C#N | 6.16 | 6.62
13 | 10 | 1 | 12 | 28 | 29.6 | 6.49 | 40.4 | 0.78 |  |  | CC(C)n1cc(-c2cccc3nc([C@@H]4CC[C@H](C)N4c4nc(N)nc(N)c4C#N)n(-c4ccccc4)c(=O)c23)cn1 | 6.27 | 6.68
14 | 10 | 10 | 72 | 33 |  | 6.51 |  |  | 11 | 0 | C[C@H]1CC[C@@H](c2nc3cccc(Cl)c3c(=O)n2N2CCOCC2)N1c1nc(N)nc(N)c1C#N | 6.43 | 6.70
15 | 25 |  | -7 | 19 | 37.4 | 6.55 | 32.6 | 0.618 |  |  | C[C@H]1CC[C@@H](c2nc3cccc(-c4cccnc4)c3c(=O)n2-c2ccccc2)N1c1nc(N)nc(N)c1C#N | 6.00 | 6.92
16 | -2 | 0 | 23 | 2 | 17.8 | 6.59 | 45 | 1.3 |  |  | C[C@H]1CC[C@@H](c2nc3cccc(-c4cnn(C5CC5)c4)c3c(=O)n2-c2ccccc2)N1c1nc(N)nc(N)c1C#N | 6.41 | 6.66
17 | 30 | 18 | 78 | 31 | 11.4 | 6.60 | 75.5 | 2.03 | -2 |  | C[C@H]1CC[C@@H](c2nc3cccc(Cl)c3c(=O)n2-c2ccccc2)N1c1nc(N)nc2[nH]cnc12 | 6.55 | 6.74
18 | 12 |  | 13 | 19 | 20.8 | 6.72 | 59.9 | 1.11 |  |  | COc1cncc(-c2cccc3nc([C@@H]4CC[C@H](C)N4c4nc(N)nc(N)c4C#N)n(-c4ccccc4)c(=O)c23)c1 | 6.54 | 6.92
19 | 24 | -7 | 13 | 45 | 13 | 6.96 | 67.9 | 1.78 | -1 | -3 | C[C@H]1CC[C@@H](c2nc3cccc(Cl)c3c(=O)n2-c2ccccc2)N1c1nc(N)nc(N)c1C#N | 6.09 | 6.92
